The source made the active and inactive calls. The rule behind the calls is not given here.
Columns and labels:
[1] = test system: HepG2; test: Induction of glucose uptake in human HepG2 cells at 10 uM in presence of 33 mM […] by scintillation counting; type: functional, cell-based
[2] = molecular target: T1, AMP-activated protein kinase, AMPK (Homo sapiens) (UniProt P54646+O43741+P54619+Q9UGJ0+Q9Y478+Q13131+Q9UGI9); test: Induction of AMPK phosphorylation in human HepG2 cells at 10 uM by Western blot analysis in presence of 33 mM glucose; type: cell-based
[3] = Cytotoxicity against human HepG2 cells assessed as cell survival at 5 uM after 24 hrs by MTT assay; type: cell-based; details: read-out: Survival
[4] = Cytotoxicity against human HepG2 cells assessed as cell survival at 10 uM after 24 hrs by MTT assay; type: cell-based; details: read-out: Survival
[5] = Cytotoxicity against human HepG2 cells assessed as cell survival at 20 uM after 24 hrs by MTT assay; type: cell-based; details: read-out: Survival
[6] = test system: HepG2; test: Increase in glycogen synthesis in human HepG2 cells assessed as incorporation of [14C]glucose in to cellular glycogen pools at 10 uM after 60 mins in presence of 33 mM glucose; type: functional, cell-based
[7] = molecular target: Glycogen synthase kinase-3 beta (Homo sapiens) (UniProt P49841); test: Induction of GSK3-beta phosphorylation in human HepG2 cells at 10 uM by Western blot analysis in presence of 33 mM glucose; type: cell-based
Glycogen synthase kinase-3 beta (Homo sapiens), sequence (P49841 whole entry, looked up): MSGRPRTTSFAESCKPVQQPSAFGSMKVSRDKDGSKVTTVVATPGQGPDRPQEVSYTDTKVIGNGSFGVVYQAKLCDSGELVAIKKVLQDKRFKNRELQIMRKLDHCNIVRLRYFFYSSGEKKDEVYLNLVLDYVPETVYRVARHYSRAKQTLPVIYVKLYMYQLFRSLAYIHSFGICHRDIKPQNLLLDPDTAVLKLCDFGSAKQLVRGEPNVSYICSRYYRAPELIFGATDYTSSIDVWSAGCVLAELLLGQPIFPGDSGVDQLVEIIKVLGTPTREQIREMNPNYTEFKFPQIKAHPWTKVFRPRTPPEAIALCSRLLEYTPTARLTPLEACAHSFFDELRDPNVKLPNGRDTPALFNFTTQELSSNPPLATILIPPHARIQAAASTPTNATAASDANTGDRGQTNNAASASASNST

[8] = Cytotoxicity against human HepG2 cells assessed as cell survival at 100 uM after 24 hrs by MTT assay; type: cell-based; details: read-out: Survival
[9] = molecular target: Glycogen synthase kinase-3 beta (Homo sapiens) (UniProt P49841); test: Induction of GSK3-beta phosphorylation in human HepG2 cells by Western blot analysis in presence of 33 mM glucose; type: cell-based
[10] = test system: HepG2; test: Induction of glucose uptake in human HepG2 cells in presence of 33 mM […] by scintillation counting; type: functional, cell-based
[11] = molecular target: T1, AMP-activated protein kinase, AMPK (Homo sapiens); test: Induction of AMPK phosphorylation in human HepG2 cells by Western blot analysis in presence of 33 mM glucose; type: cell-based
[12] = test system: HepG2; test: Increase in glycogen synthesis in human HepG2 cells assessed as incorporation of [14C]glucose in to cellular glycogen pools at 1 uM after 60 mins in presence of 33 mM glucose; type: functional, cell-based
[13] = test system: HepG2; test: Induction of acetyl-coA carboxylase phosphorylation in human HepG2 cells by Western blot analysis in presence of 33 mM glucose; type: cell-based

| Structure (SMILES) | Activity [1] | Activity [2] | viability at 24 h, 5 µM [3] | viability at 24 h, 10 µM [4] | viability at 24 h, 20 µM [5] | Activity [6] | Activity [7] | viability at 24 h, 100 µM [8] | Activity [9] | Activity [10] | Activity [11] | Activity [12] | Activity [13] |
| --- | --- | --- | --- | --- | --- | --- | --- | --- | --- | --- | --- | --- | --- |
| C=C(C)[C@@H]1CC[C@]2(C(=O)O)CC[C@]3(C)[C@H](CC[C@@H]4[C@@]5(C)CC[C@H](O)C(C)(C)[C@@H]5CC[C@]43C)[C@@H]12 [BETULINIC ACID] | Active | Active | 99.6% | 91.3% | 81.2% | Active | Active | 52.9% |  |  |  |  |  |
| CC[C@H](CC[C@@H](C)[C@H]1CC[C@H]2[C@@H]3CC=C4C[C@@H](O)CC[C@]4(C)[C@H]3CC[C@]12C)C(C)C [BETA-SITOSTEROL] | Active | Active | 98.8% | 99.7% | 82.3% | Active | Active | 57.8% |  |  |  |  |  |
| CC1(C)[C@@H](O)CC[C@]2(C)[C@H]3C=CC4=C(O)C(=O)C(=O)[C@@]4(C)[C@]3(C)CC[C@@H]12 [PALBINONE] | Active | Active | 98.7% | 99.8% | 81.5% | Active | Active | 41.6% | Dose-dependent effect | Dose-dependent effect | Dose-dependent effect | Active | Dose-dependent effect |
| C[C@H]1[C@H](C)CC[C@]2(C(=O)O)CC[C@]3(C)C(=CC[C@@H]4[C@@]5(C)CC[C@H](O)C(C)(C)[C@@H]5CC[C@]43C)[C@H]12 [URSOLIC ACID] | Active | Active | 97.1% | 99.2% | 82% | Active | Active | 55.8% |  |  |  |  |  |
| CC[C@H](CC[C@@H](C)[C@H]1CC[C@H]2[C@@H]3CC=C4C[C@@H](O[C@@H]5O[C@H](CO)[C@@H](O)[C@H](O)[C@H]5O)CC[C@]4(C)[C@H]3CC[C@]12C)C(C)C [SITOGLUSIDE] | Active | Active | 99.9% | 92.8% | 82.7% | Active | Active | 66.3% |  |  |  |  |  |
| C=C1CC[C@]2(C(=O)O)CC[C@]3(C)C(=CC[C@@H]4[C@@]5(C)CC[C@H](O)[C@@](C)(CO)[C@@H]5CC[C@]43C)[C@@H]2C1 | Active | Active | 100% | 96.7% | 84.6% | Active | Active | 65% |  |  |  |  |  |
| CC1(C)CC[C@]2(C(=O)O)CC[C@]3(C)C(=CC[C@@H]4[C@@]5(C)CC[C@H](O)C(C)(C)[C@@H]5CC[C@]43C)[C@@H]2C1 [OLEANOLIC_ACID] | Active | Active | 97.8% | 99.9% | 82.4% | Active | Active | 54.1% |  |  |  |  |  |

Reference: ChEMBL document CHEMBL1155207, “Palbinone and triterpenes from Moutan Cortex (Paeonia suffruticosa, Paeoniaceae) stimulate glucose uptake and glycogen synthesis via activation of AMPK in insulin-resistant human HepG2 Cells” (Bioorg Med Chem Lett, 2009)
